Converted amounts (≈) assume the structure as drawn.
Test: Lipophilicity, log D of the compound at pH 7.4 by shake flask method
Format: physicochemical
Conditions: buffer

logD | SMILES
0.3 | CN(C)[C@H]1CC[C@H](Nc2ncnc3[nH]cc(C4CCCO4)c23)CC1 (stereo in doubt; 18b)

Same assay, conditions: buffer, read-out: logD

logD | SMILES
1.2 | CN(C)[C@H]1CC[C@H](Nc2ncnc3sc4c(c23)CCC4)CC1
0.3 | CN(C)[C@H]1CC[C@H](Nc2ncnc3[nH]cc(C4CCCOC4)c23)CC1 (some centres not stated)
1.5 | CN(C)[C@H]1CC[C@H](Nc2ncnc3[nH]cc(C(F)(F)F)c23)CC1
2.4 | c1nc(O[C@H]2CC[C@H](N3CCOCC3)CC2)c2c(C3CCOCC3)c[nH]c2n1
0.7 | Cc1sc2ncnc(N[C@H]3CC[C@H](N(C)C)CC3)c2c1C
0.6 | CN(C)[C@H]1CC[C@H](N(C)c2ncnc3[nH]cc(C4CCOCC4)c23)CC1
0.6 | CCc1c[nH]c2ncnc(N[C@H]3CC[C@H](N(C)C)CC3)c12
1.5 | CN(C)[C@H]1CC[C@H](Nc2ncnc3[nH]cc(C4CCC4)c23)CC1
2.3 | N#Cc1cnc2[nH]cc(C3CCOCC3)c2c1N[C@H]1CC[C@H](N2CCOCC2)CC1
0.3 | Cc1csc2ncnc(N[C@H]3CC[C@H](N(C)C)CC3)c12
-0.2 | Cc1cc2c(N[C@H]3CC[C@H](N(C)C)CC3)ncnc2[nH]1
3 | c1nc(S[C@H]2CC[C@H](N3CCOCC3)CC2)c2c(C3CCOCC3)c[nH]c2n1
0.5 | CN(C)[C@H]1CC[C@H](Nc2ncnc3[nH]c4c(c23)CCC4)CC1
0.9 | CN(C)[C@H]1CC[C@H](Nc2ncnc3[nH]cc(C4CC4)c23)CC1
-0.6 | CN(C)[C@H]1CC[C@H](Nc2ncnc3[nH]ccc23)CC1
0.6 | Cc1cc2c(N[C@H]3CC[C@H](N(C)C)CC3)ncnc2s1
1.2 | CN(C)[C@H]1CC[C@H](Oc2ncnc3[nH]cc(C4CCOCC4)c23)CC1
1.7 | CN(C)[C@H]1CC[C@H](Nc2ncnc3[nH]cc(C4CCCC4)c23)CC1
0.1 | CN(C)[C@H]1CC[C@H](Nc2ncnc3sccc23)CC1
1.7 | c1cc(N[C@H]2CC[C@H](N3CCOCC3)CC2)c2c(C3CCOCC3)c[nH]c2n1
0.6 | Cc1[nH]c2ncnc(N[C@H]3CC[C@H](N(C)C)CC3)c2c1C
0.4 | CN(C)[C@H]1CC[C@H](Nc2ncnc3[nH]cc(C4CCCO4)c23)CC1 (stereo in doubt; 18a)
0.1 | CN(C)[C@H]1CC[C@H](Nc2ncnc3[nH]cc(C4CCOC4)c23)CC1 (stereo in doubt; 19a)

Test: Drug excretion in bile duct cannulated rat urine at 2 mg/kg, iv
Format: ADME, organism-based
Conditions: read-out: Drug excretion

dose excreted [%] | SMILES
27 | c1nc(N[C@H]2CC[C@H](N3CCOCC3)CC2)c2c(C3CCOCC3)c[nH]c2n1

Test: Drug excretion in bile duct cannulated rat bile at 2 mg/kg, iv
Format: ADME, organism-based
Conditions: read-out: Drug excretion

dose excreted [%] | SMILES
2 | c1nc(N[C@H]2CC[C@H](N3CCOCC3)CC2)c2c(C3CCOCC3)c[nH]c2n1

Test: Aqueous solubility of the compound at pH 7.4 at 25 degC
Format: physicochemical
Conditions: buffer

solubility [µM] | SMILES
5 (≈ 2.01 µg/mL) | c1nc(S[C@H]2CC[C@H](N3CCOCC3)CC2)c2c(C3CCOCC3)c[nH]c2n1
